Legend:
Assay in all cases: pull-down of COI1-flag on MBP-JAZ, immunoblot
Assay type in all cases: binding
Details in all cases: 0.5 μM COR; inducer of complex (agonist)
[1] = target: T1, AtCOI1-flag/AtJAZ2-MBP with ASK1 (Arabidopsis thaliana, UniProt O04197+Q9S7M2)
T1 sequence (O04197 1-592): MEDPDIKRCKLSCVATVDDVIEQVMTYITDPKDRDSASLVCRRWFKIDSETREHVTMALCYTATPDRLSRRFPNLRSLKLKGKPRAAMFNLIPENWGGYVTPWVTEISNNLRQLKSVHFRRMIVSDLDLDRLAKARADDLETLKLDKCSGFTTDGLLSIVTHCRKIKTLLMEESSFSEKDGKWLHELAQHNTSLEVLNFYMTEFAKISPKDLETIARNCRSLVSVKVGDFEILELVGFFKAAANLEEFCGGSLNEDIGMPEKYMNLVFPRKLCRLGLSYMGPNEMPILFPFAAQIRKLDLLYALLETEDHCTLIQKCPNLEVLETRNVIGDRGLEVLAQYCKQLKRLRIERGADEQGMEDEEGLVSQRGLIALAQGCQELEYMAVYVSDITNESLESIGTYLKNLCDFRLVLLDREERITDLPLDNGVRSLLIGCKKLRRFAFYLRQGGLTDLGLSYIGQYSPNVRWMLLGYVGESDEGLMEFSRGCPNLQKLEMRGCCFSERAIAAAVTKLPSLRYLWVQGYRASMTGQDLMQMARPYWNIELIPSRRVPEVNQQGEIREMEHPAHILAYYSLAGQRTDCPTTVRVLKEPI
T1 sequence (Q9S7M2 1-249): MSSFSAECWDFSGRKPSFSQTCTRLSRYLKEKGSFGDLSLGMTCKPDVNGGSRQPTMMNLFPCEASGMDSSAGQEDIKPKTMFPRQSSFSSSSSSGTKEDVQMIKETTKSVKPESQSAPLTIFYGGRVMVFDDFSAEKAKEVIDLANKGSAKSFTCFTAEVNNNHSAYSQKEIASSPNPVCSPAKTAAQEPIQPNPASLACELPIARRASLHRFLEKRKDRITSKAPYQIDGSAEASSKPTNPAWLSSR
T1 sequence (Q39255 1-160 partner): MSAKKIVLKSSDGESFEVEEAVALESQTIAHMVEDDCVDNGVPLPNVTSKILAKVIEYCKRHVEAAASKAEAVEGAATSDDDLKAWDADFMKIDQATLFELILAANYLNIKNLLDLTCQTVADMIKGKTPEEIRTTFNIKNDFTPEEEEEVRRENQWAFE

[2] = target: T2, AtCOI1-flag/AtJAZ1-MBP with ASK1 (Arabidopsis thaliana, UniProt O04197+Q9LMA8)
T2 sequence (O04197 1-592): T1 sequence (O04197 1-592)
T2 sequence (Q9LMA8 1-253): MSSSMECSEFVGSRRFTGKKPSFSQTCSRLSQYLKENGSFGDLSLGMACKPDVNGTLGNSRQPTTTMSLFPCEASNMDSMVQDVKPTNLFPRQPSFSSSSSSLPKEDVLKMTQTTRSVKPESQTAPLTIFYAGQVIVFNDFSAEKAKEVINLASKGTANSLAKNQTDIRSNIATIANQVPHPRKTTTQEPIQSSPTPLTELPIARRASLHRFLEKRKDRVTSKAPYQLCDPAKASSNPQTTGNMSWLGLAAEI
T2 sequence (Q39255 1-160 partner): T1 sequence (Q39255 1-160 partner)

[3] = target: T3, AtCOI1-flag/AtJAZ3-MBP with ASK1 (Arabidopsis thaliana, UniProt O04197+Q9LVI4)
T3 sequence (O04197 1-592): T1 sequence (O04197 1-592)
T3 sequence (Q9LVI4 1-352): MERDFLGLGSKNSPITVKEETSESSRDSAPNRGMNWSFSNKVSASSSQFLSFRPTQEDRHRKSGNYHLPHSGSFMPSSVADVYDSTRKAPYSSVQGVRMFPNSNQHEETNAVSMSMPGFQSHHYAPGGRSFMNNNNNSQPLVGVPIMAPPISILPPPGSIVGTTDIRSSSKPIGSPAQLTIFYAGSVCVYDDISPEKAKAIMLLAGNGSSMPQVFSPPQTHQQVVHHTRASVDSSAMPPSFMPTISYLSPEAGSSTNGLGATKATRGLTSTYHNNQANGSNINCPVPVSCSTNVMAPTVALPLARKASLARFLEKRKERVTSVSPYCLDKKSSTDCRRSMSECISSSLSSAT
T3 sequence (Q39255 1-160 partner): T1 sequence (Q39255 1-160 partner)

[4] = target: T4, AtCOI1-flag/AtJAZ9-MBP with ASK1 (Arabidopsis thaliana, UniProt O04197+Q8W4J8)
T4 sequence (O04197 1-592): T1 sequence (O04197 1-592)
T4 sequence (Q8W4J8 1-267): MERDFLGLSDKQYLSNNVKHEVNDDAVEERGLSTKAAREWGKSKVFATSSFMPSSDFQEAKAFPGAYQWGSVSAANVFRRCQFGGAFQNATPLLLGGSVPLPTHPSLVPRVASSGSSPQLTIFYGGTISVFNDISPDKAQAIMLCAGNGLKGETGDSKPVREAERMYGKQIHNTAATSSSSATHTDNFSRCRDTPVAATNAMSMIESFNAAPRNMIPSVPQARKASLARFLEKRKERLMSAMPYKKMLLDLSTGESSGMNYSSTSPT
T4 sequence (Q39255 1-160 partner): T1 sequence (Q39255 1-160 partner)

## CC[C@H]1C=C(C(=O)N[C@@]2(C(=O)O)C[C@@H]2CC)[C@H]2CCC(=O)[C@H]2C1 [COR]
[1]
  pull-down of COI1-flag on MBP-JAZ, immunoblot: COR promotes the interaction between the purified COI1 and several recombinant JAZ-MBP proteins
[2]
  pull-down of COI1-flag on MBP-JAZ, immunoblot: COR promotes the interaction between the purified COI1 and several recombinant JAZ-MBP proteins
[3]
  pull-down of COI1-flag on MBP-JAZ, immunoblot: COR promotes the interaction between the purified COI1 and several recombinant JAZ-MBP proteins
[4]
  pull-down of COI1-flag on MBP-JAZ, immunoblot: COR promotes the interaction between the purified COI1 and several recombinant JAZ-MBP proteins
